Measured values published in patent EP0209237A2, “Vinyl-glycyl-amino-beta-lactam derivatives” (BEECHAM GROUP PLC, priority 1985, dated 1987).
Values after ≈ are worked out from the molar mass of the structure shown. Like-named read-outs stand apart in the source and are kept apart here.

Columns and labels:
[1] = test system: S.pyogenes CN 10; assay: Minimum Inhibitory Concentration (MIC), agar dilution; type: cell-based; details: 5% v/v horse blood agar, two-fold dilutions, read after 24 hours; unit assumed
Experimental: (§1) The following Table gives Minimum Inhibitory Concentration (MIC) values for some of the compounds of the invention against S.pyogenes CN 10 and E.coli NCTC 10418. The E. coli was grown in tryptone soya broth and the S. pyogenes was grown in Todd Hewitt broth. The microorganisms were grown for 24hours and lul samples were then inoculated on to agar plates (comprising 5% v/v live horse blood agar) to which had been added the compounds of the invention at a series of two-fold dilutions.

[2] = test system: E.coli NCTC 10418; assay: as above; type: cell-based; details: 5% v/v horse blood agar, two-fold dilutions, read after 24 hours; unit assumed
Experimental: as §1

[3] = test system: E.coli 96 R-; assay: MIC against the infecting strain (Table 4); type: cell-based; details: Escherichia coli
[4] = test system: E.coli 96 R-; assay: CD50, protection of mice infected with a lethal inoculum; type: in vivo; details: for ED50: Escherichia coli, 96R, read-out: Total CD50
From the text: (§2) The following Table gives CD50 values obtained after infecting groups of mice with a lethal inoculum of various bacteria and treating the mice with the compounds quoted. The CD50 value then represents the amount of compound necessary to protect 50% of the animals.

[5] = test system: S.aureus Smith; assay: as above; type: in vivo; details: for ED50: Staphylococcus aureus, read-out: Total CD50
From the text: as §2

[6] = test system: S.agalactiae 2798; assay: as above; type: in vivo; details: for ED50: read-out: Total CD50
From the text: as §2

[7] = test system: S.agalactiae 2798; assay: MIC against the infecting strain (Table 4); type: cell-based; details: Streptococcus agalactiae
[8] = test system: S.aureus Smith; assay: MIC against the infecting strain (Table 4); type: cell-based; details: Staphylococcus aureus
[9] = Squirrel monkey plasma levels; type: in vivo; details: for concentration at 0.25 h: 15 minutes, read-out: Plasma Levels, Time in Minutes 15; for concentration at 0.5 h: 30 minutes, read-out: Plasma Levels, Time in Minutes 30; for concentration at 1 h: 60 minutes, read-out: Plasma Levels, Time in Minutes 60; for concentration at 2 h: 120 minutes, read-out: Plasma Levels, Time in Minutes 120; for concentration at 4 h: 240 minutes, read-out: Plasma Levels, Time in Minutes 240; for concentration at 6 h: 360 minutes, read-out: Plasma Levels, Time in Minutes 360; for AUC: read-out: Area under the curve
[10] = Streptococcus agalactiae, 2798, po, S.agalactiae 2798, p.o.

CC(=O)OC/C=C/[C@@H](N)C(=O)N[C@@H]1C(=O)N2[C@@H]1SC(C)(C)[C@@H]2C(=O)O [Example 23, 6β-[5-Acetoxy-D-2-aminopent-3(E)-enamido] penicillanic acid]
MIC S. pyogenes CN 10 [1]: 0.12 µg/mL (≈ 0.323 µM)
MIC E. coli NCTC 10418 [2]: 32 µg/mL (≈ 86.2 µM)

CC1(C)S[C@@H]2[C@H](NC(=O)C(N)/C=C/c3ccc(Cl)cc3)C(=O)N2[C@H]1C(=O)O (stereo partly drawn) [Example 16, 6β-[D,L-2--Amino-4-(4-chlorophenyl)but-3(E)-enamido]penicillanic acid]
MIC S. pyogenes CN 10 [1]: < 0.06 µg/mL
MIC E. coli NCTC 10418 [2]: 16 µg/mL (≈ 39 µM)

C/C=C/[C@@H](N)C(=O)N[C@@H]1C(=O)N2[C@@H]1SC(C)(C)[C@@H]2C(=O)O [Example 11 (D-stereoisomer), 6β-(D-2-Amino-pent-3(E)-enamido)penicillanic acid]
MIC S. pyogenes CN 10 [1]: < 0.06 µg/mL
MIC E. coli NCTC 10418 [2]: 8 µg/mL (≈ 25.5 µM)

C=C(c1ccccc1)[C@@H](N)C(=O)N[C@@H]1C(=O)N2[C@@H]1SC(C)(C)[C@@H]2C(=O)O [Example 4 (D-stereoisomer), 6β-(D-2-amino-3-phenylbut-3-enamido)penicillanic acid]
MIC S. pyogenes CN 10 [1]: < 0.03 µg/mL
MIC E. coli NCTC 10418 [2]: 8 µg/mL (≈ 21.3 µM)

C=C(C)[C@@H](N)C(=O)N[C@@H]1C(=O)N2C(C(=O)O)=C(COC(C)=O)CS[C@H]12 [Example 7, 7,β-(D-2-Amino-3-methylbut-3-enamido)cephalosporanic acid]
MIC S. pyogenes CN 10 [1]: 0.25 µg/mL (≈ 0.677 µM)
MIC E. coli NCTC 10418 [2]: 32 µg/mL (≈ 86.6 µM)

CC1(C)S[C@@H]2[C@H](NC(=O)C(N)/C(=C\Cl)c3cccs3)C(=O)N2[C@H]1C(=O)O (stereo partly drawn) [Example 20, 6B-(D,L-2-Amino-4-chloro-3-thien-2-ylbut-3(E)-enamido)penicillanic acid]
MIC S. pyogenes CN 10 [1]: 0.06 µg/mL (≈ 0.144 µM)
MIC E. coli NCTC 10418 [2]: 32 µg/mL (≈ 76.9 µM)

C=C(C)[C@@H](N)C(=O)N[C@@H]1C(=O)N2[C@@H]1SC(C)(C)[C@@H]2C(=O)O [Example 6, 6,β-(D-2-Amino-3-methylbut-3-enamido)penicillanic-acid]
MIC [3]: 4 µg/mL (≈ 12.8 µM)
ED50 ([4]; po): 32 mg/kg
Total CD50 ([4]; p.o.): 40 mg/kg
ED50 ([5]; po): 0.08 mg/kg
ED50 ([5]; sc): 0.15 mg/kg
Total CD50 ([5]; p.o.): 0.10 mg/kg
Total CD50 ([6]; S.agalactiae 2798, p.o.): 3.8 mg/kg
Total CD50 ([6]; S.agalactiae 2798, s.c.): 1.1 mg/kg
ED50 [6, 10]: 3.6 mg/kg
ED50 ([6]; Streptococcus agalactiae, 2798, sc, S.agalactiae 2798, s.c.): 1.5 mg/kg
MIC [7]: 0.25 µg/mL (≈ 0.798 µM)
MIC [8]: 0.12 µg/mL (≈ 0.383 µM)
concentration at 0.25 h [9]: 8700 ng/mL
concentration at 0.5 h [9]: 16400 ng/mL
concentration at 1 h [9]: 20000 ng/mL
concentration at 2 h [9]: 13000 ng/mL
concentration at 4 h [9]: 2200 ng/mL
concentration at 6 h [9]: 900 ng/mL
AUC [9]: 46500 ng·h/mL
MIC S. pyogenes CN 10 [1]: < 0.03 µg/mL
MIC E. coli NCTC 10418 [2]: 2 µg/mL (≈ 6.38 µM)

CC1(C)S[C@@H]2[C@H](NC(=O)[C@H](N)c3ccc(O)cc3)C(=O)N2[C@H]1C(=O)O [Amoxycillin, reference compound]
concentration at 0.25 h [9]: 4800 ng/mL
concentration at 0.5 h [9]: 9700 ng/mL
concentration at 1 h [9]: 12600 ng/mL
concentration at 2 h [9]: 6700 ng/mL
concentration at 4 h [9]: 1100 ng/mL
concentration at 6 h [9]: 300 ng/mL
AUC [9]: 26200 ng·h/mL

C=C([C@@H](N)C(=O)N[C@@H]1C(=O)N2[C@@H]1SC(C)(C)[C@@H]2C(=O)O)C(F)(F)F [Example 17 (D-stereoisomer), 6,P-(D-2-amino-3-trifluoromethylbut-3-enamido)penicillanic acid]
MIC S. pyogenes CN 10 [1]: < 0.06 µg/mL
MIC E. coli NCTC 10418 [2]: 4 µg/mL (≈ 10.9 µM)

CC1(C)S[C@@H]2[C@H](NC(=O)[C@H](N)C=C(Cl)Cl)C(=O)N2[C@H]1C(=O)O [Example 5 (D-stereoisomer), 6β-(D-2-amino-4,4-dichlorobut-3-enamido)penicillanic acid]
MIC [3]: 2 µg/mL (≈ 5.43 µM)
ED50 ([4]; po): 40 mg/kg
ED50 ([4]; sc): 22 mg/kg
ED50 ([5]; sc): 0.08 mg/kg
Total CD50 ([5]; s.c.): 0.09 mg/kg
Total CD50 ([6]; S.agalactiae 2798, p.o.): 0.6 mg/kg
ED50 [6, 10]: 0.9 mg/kg
MIC [7]: 0.06 µg/mL (≈ 0.163 µM)
MIC [8]: 0.06 µg/mL (≈ 0.163 µM)
concentration at 0.25 h [9]: 20700 ng/mL
concentration at 0.5 h [9]: 28800 ng/mL
concentration at 1 h [9]: 24300 ng/mL
concentration at 2 h [9]: 16800 ng/mL
concentration at 4 h [9]: 2400 ng/mL
concentration at 6 h [9]: 1400 ng/mL
AUC [9]: 63000 ng·h/mL
MIC S. pyogenes CN 10 [1]: < 0.03 µg/mL
MIC E. coli NCTC 10418 [2]: 2 µg/mL (≈ 5.43 µM)

C=C[C@@H](N)C(=O)N[C@@H]1C(=O)N2[C@@H]1SC(C)(C)[C@@H]2C(=O)O [Example 1, 6β-(D-2-Aminobut-3-enamido)penicillanic acid]
concentration at 0.25 h [9]: 4000 ng/mL
concentration at 0.5 h [9]: 14700 ng/mL
concentration at 1 h [9]: 32700 ng/mL
concentration at 2 h [9]: 15700 ng/mL
concentration at 4 h [9]: 2400 ng/mL
concentration at 6 h [9]: 800 ng/mL
AUC [9]: 59700 ng·h/mL
MIC S. pyogenes CN 10 [1]: 0.03 µg/mL (≈ 0.1 µM)
MIC E. coli NCTC 10418 [2]: 8 µg/mL (≈ 26.7 µM)

CC1(C)S[C@@H]2[C@H](NC(=O)C(N)/C(=C/Cl)c3cccs3)C(=O)N2[C@H]1C(=O)O (stereo partly drawn) [Example 19, 6β-(D,L-2-Amino-4-chloro-3-thien-2-ylbut-3(Z)-enamido)penicillanic acid]
MIC S. pyogenes CN 10 [1]: < 0.03 µg/mL
MIC E. coli NCTC 10418 [2]: 16 µg/mL (≈ 38.5 µM)

CC1(C)S[C@@H]2[C@H](NC(=O)[C@H](N)/C=C/C3CCCCC3)C(=O)N2[C@H]1C(=O)O [Example 14 (D-stereoisomer), 6β-(D-2-amino-4-cyclohexylbut-3(E)-enamido)penicillanic acid]
MIC S. pyogenes CN 10 [1]: < 0.06 µg/mL
MIC E. coli NCTC 10418 [2]: 16 µg/mL (≈ 41.9 µM)

C/C=C(\C)[C@@H](N)C(=O)N[C@@H]1C(=O)N2[C@@H]1SC(C)(C)[C@@H]2C(=O)O [Example 10 (D-stereoisomer), 6β-(D-2-amino-3-methylpent-3(E)-enamido)penicillanic acid]
MIC S. pyogenes CN 10 [1]: < 0.06 µg/mL
MIC E. coli NCTC 10418 [2]: 2 µg/mL (≈ 6.11 µM)

CC/C=C/[C@@H](N)C(=O)N[C@@H]1C(=O)N2[C@@H]1SC(C)(C)[C@@H]2C(=O)O [Example 13 (D-stereoisomer), 6p-(D-2-aminohex-3(E)-enamido)penicillanic acid]
MIC S. pyogenes CN 10 [1]: < 0.06 µg/mL
MIC E. coli NCTC 10418 [2]: 4 µg/mL (≈ 12.2 µM)

C=C/C=C(\C)[C@@H](N)C(=O)N[C@@H]1C(=O)N2[C@@H]1SC(C)(C)[C@@H]2C(=O)O [Example 12 (D-stereoisomer), 6β-(D-2-amino-3-methylhex-3(E), 5-dienamido)penicillanic acid]
MIC S. pyogenes CN 10 [1]: 0.06 µg/mL (≈ 0.177 µM)
MIC E. coli NCTC 10418 [2]: 2 µg/mL (≈ 5.89 µM)

C=C(C)[C@@H](N)C(=O)N[C@@H]1C(=O)N2C(C(=O)O)=C(C)CS[C@H]12 [Example 8, 7,β-[D-2-Amino-3-methylbut-3-enamido]-3-desacetoxy cephalosporanic acid]
MIC S. pyogenes CN 10 [1]: 2 µg/mL (≈ 6.42 µM)

C=C(CC)[C@@H](N)C(=O)N[C@@H]1C(=O)N2[C@@H]1SC(C)(C)[C@@H]2C(=O)O [Example 9 (D-stereoisomer), 6,β-(D-2-amino-3-ethylbut-3-enamido)penicillanic acid]
MIC S. pyogenes CN 10 [1]: < 0.03 µg/mL
MIC E. coli NCTC 10418 [2]: 2 µg/mL (≈ 6.11 µM)

CC1(C)S[C@@H]2[C@H](NC(=O)[C@H](N)/C=C/c3ccccc3)C(=O)N2[C@H]1C(=O)O [Example 15 (D-stereoisomer), 6p-(D-2-amino-4-phenylbut-3(E)enamido)penicillanic acid]
MIC S. pyogenes CN 10 [1]: < 0.06 µg/mL
MIC E. coli NCTC 10418 [2]: 16 µg/mL (≈ 42.6 µM)

C/C(=C/Cl)C(N)C(=O)N[C@@H]1C(=O)N2[C@@H]1SC(C)(C)[C@@H]2C(=O)O (stereo partly drawn) [Example 22, 6β-(D,L-2-Amino-4-chloro-3-methylbut-3(Z)-enamido) penicillanic acid]
MIC S. pyogenes CN 10 [1]: 0.12 µg/mL (≈ 0.345 µM)
MIC E. coli NCTC 10418 [2]: 8 µg/mL (≈ 23 µM)

C/C(=C\Cl)[C@@H](N)C(=O)N[C@@H]1C(=O)N2[C@@H]1SC(C)(C)[C@@H]2C(=O)O [Example 21 (D-stereoisomer), 6β-(D-2-Amino-4-chloro-3-methylbut-3(E)-enamido)-penicillanic acid]
MIC S. pyogenes CN 10 [1]: 0.06 µg/mL (≈ 0.173 µM)
MIC E. coli NCTC 10418 [2]: 4 µg/mL (≈ 11.5 µM)

C=C(c1cccs1)[C@@H](N)C(=O)N[C@@H]1C(=O)N2[C@@H]1SC(C)(C)[C@@H]2C(=O)O [Example 18 (D-stereoisomer), 6β-(D-2-amino-3-thien-2-yl-but-3-enamido)penicillanic acid]
MIC S. pyogenes CN 10 [1]: 0.06 µg/mL (≈ 0.157 µM)
MIC E. coli NCTC 10418 [2]: 16 µg/mL (≈ 41.9 µM)
